Values quoted from earlier work, collected in US12208104B2, “Pharmaceutical compositions suitable for articular delivery and use thereof in treatment of joint pain” (TAIWAN LIPOSOME CO., LTD., priority 2018, dated 2025).

System: cartilage
Details: repeated intra-articular injections

Row | Compound | cartilage damage
1 | C[C@@H]1C[C@H]2[C@@H]3CCC4=CC(=O)C=C[C@]4(C)[C@@]3(F)[C@@H](O)C[C@]2(C)[C@@]1(O)C(=O)CO [dexamethasone] | cartilage damage has been reported
2 | C[C@]12C=CC(=O)C=C1CC[C@H]1[C@@H]3C[C@@H](O)[C@](O)(C(=O)CO)[C@@]3(C)C[C@H](O)[C@@]12F [triamcinolone] | cartilage damage has been reported
